From article PMC8315060, “N-terminus-independent activation of c-Src via binding to a tetraspan(in) TM4SF5 in hepatocellular carcinoma is abolished by the TM4SF5 C-terminal peptide application” (Theranostics, 2021)

Assays:
Assay type in all cases: cell-based
[1] = biological target: T1, TM4SF5 binding to c-Src (Homo sapiens, UniProt O14894); test: TM4SF5 binding to c-Src after TSAHC treatment; conditions: treatment of TSAHC, stated in the discussion
T1 construct: TM4SF5WT (NM-003963, 197 amino acids); expressed in transfected cells
T1 sequence (O14894 1-197): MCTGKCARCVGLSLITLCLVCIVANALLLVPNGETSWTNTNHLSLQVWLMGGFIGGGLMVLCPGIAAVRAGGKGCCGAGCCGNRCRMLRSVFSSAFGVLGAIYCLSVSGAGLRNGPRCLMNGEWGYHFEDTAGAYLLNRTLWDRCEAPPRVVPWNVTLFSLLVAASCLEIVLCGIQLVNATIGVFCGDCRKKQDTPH
Text: (A and B) SNU449 cells transiently transfected with the c-Src SH321 construct together with the indicated constructs were harvested (A). SNU761 cells stably expressing mock or FLAG-TM4SF5 were transiently transfected with the indicated constructs were harvested (B). The whole cell lysates (WCL) were precipitated with streptavidin beads, prior to immunoblotting. (C) SNU761 cells stably expressing mock or FLAG-TM4SF5WT (WT) were transiently transfected with the indicated construct and siRNAs against a scrambled sequence (siCont) or a sequence in PTP1B (siPTP1B). Immunoprecipitation from the WCL using anti-Flag-precoated sepharose beads was performed, before immunoblots. (D) SNU449 cells transfected with the indicated plasmids were processed for precipitation using streptavidin beads, prior to immunoblotting. (E) Stable SNU449 cells were treated with DMSO (-) or TSAHC (20 μM, +) for 24 h, before harvest, precipitation using streptavidin beads, and immunoblotting. Another cell set with TM4SF5-Flag and treated with DMSO or TSAHC as above was processed for immunofluorescence analysis. (F) SNU761 cells stably expressing TM4SF5WT were transiently transfected with the indicated siRNAs for 48 h, prior to transwell migration assay. […] Quantitative comparison ratios were calculated from the blots by measurement of band intensities using Image J and normalization of them to those of loading controls. […]

[2] = biological target: T2, PTP1B binding to TM4SF5 (Homo sapiens, UniProt O14894); test: Streptavidin pull-down of STrEP-TM4SF5 and immunoblot for PTP1B after TSAHC; conditions: stable SNU449 cells, TSAHC 20 μM for 24 h, immunoblot, Figure 3E
T2 construct: TM4SF5WT (NM-003963, 197 amino acids); expressed in transfected cells; host or cells: SNU449 cells stably expressing STrEP-TM4SF5
T2 sequence (O14894 1-197): T1 sequence (O14894 1-197)
Text: Co-immunoprecipitation: Whole cell extracts were precipitated with anti-FLAG antibody (Cell Signaling Technology) or […]-precoated beads (Sigma-Aldrich) in a cold room overnight prior to immunoblotting with the indicated antibodies. For co-immunoprecipitation of endogenous proteins, whole cell lysates of endogenous TM4SF5-expressing HepG2 cells were precipitated with either anti-TM4SF5 [27] or c-Src (sc-8056, clone H-12) antibody prior to immunoblotting for FAK, c-Src, and TM4SF5. Immunoprecipitated proteins were boiled in 2× SDS-PAGE sample buffer before undergoing western blotting using standard protocols. Quantification of band intensity was performed as described above.
(A and B) SNU449 cells transiently transfected with the c-Src SH321 construct together with the indicated constructs were harvested (A). SNU761 cells stably expressing mock or FLAG-TM4SF5 were transiently transfected with the indicated constructs were harvested (B). The whole cell lysates (WCL) were precipitated with streptavidin beads, prior to immunoblotting. […] Quantitative comparison ratios were calculated from the blots by measurement of band intensities using Image J and normalization of them to those of loading controls. […]

[3] = biological target: T3, TM4SF5 (Homo sapiens, UniProt O14894); test: Immunofluorescence of TM4SF5 localization after TSAHC; conditions: TM4SF5-Flag cells, TSAHC 20 μM for 24 h, Figure 3E
T3 construct: TM4SF5WT (NM-003963, 197 amino acids); expressed in transfected cells
T3 sequence (O14894 1-197): T1 sequence (O14894 1-197)
Description: Indirect immunofluorescence: Cells maintained under normal culture conditions on glass coverslips were treated with peptides for 1 day in the absence or presence of 10 μM TSAHC, a specific TM4SF5 inhibitor [29]. The cells were incubated with either PBS (non-permeabilized) or 0.5% Triton X-100 in PBS (permeabilized) for 5 min at RT and then stained using an antibody against TAT (1:100 dilution, Cell Applications, Inc., San Diego, CA, USA). Cells treated with the CPPs were also fixed with 4% formaldehyde for 10 min at RT, incubated with 30 mM glycine for 30 min, permeabilized as described above, and then stained with antibodies against pY397FAK (Cat #: 611723, BD Transduction Laboratories, 1:500 dilution) or pY861FAK (sc-16663-R, Santa Cruz Biotechnology, 1:500 dilution). Phalloidin was also used to stain for F-actin. Immunofluorescent images were acquired on a confocal (Nikon eclipse Ti; Nikon, Melville, NY, USA) or a fluorescent microscope (BX51, Olympus, Japan).
(A and B) SNU449 cells transiently transfected with the c-Src SH321 construct together with the indicated constructs were harvested (A). […] Quantitative comparison ratios were calculated from the blots by measurement of band intensities using Image J and normalization of them to those of loading controls. […]

Cc1ccc(S(=O)(=O)Nc2ccc(C(=O)C=Cc3ccc(O)cc3)cc2)cc1 [TSAHC, 4-(p-toluenesulfonylamido)-4-hydroxychalcone]
TM4SF5 binding to c-Src [1]: impaired TM4SF5 binding to c-Src
PTP1B binding to TM4SF5 [2]: reduced substantially
membrane localization of TM4SF5 [3]: still showed membrane localization of TM4SF5
